pEC50, pIC50, pKd: −log10 of the molar value. ≈ marks a conversion by molar mass, not a printed value. Calls of active or inactive are those of the source. The rule behind the calls is not given here.
Tests used:
[1] = Inhibition of N-terminal 6xHis tagged human Hsp70 expressed in Escherichia coli BL21 (DE3)/FAM-labeled BimBH3 peptide (unknown origin) protein protein interaction incubated for 10 mins by fluorescence polarization assay
[2] = organism: Homo sapiens; test: Effect on human N-terminal 6xHis tagged HSP70 basal ATPase activity expressed in Escherichia coli BL21 (DE3) at 0 to 50 uM preincubated for 30 mins followed by ATP addition and measured after 10 mins by luciferin based luminescence analysis; settings: dose 0-50 µM, time 40.0 min
[3] = organism: Homo sapiens; test: Inhibition of BimBH3 peptide stimulated human N-terminal 6xHis tagged Hsp70 ATPase activity expressed in Escherichia coli BL21 (DE3) at 0 to 50 uM preincubated for 30 mins followed by ATP addition and measured after 10 mins by luciferin based luminescence analysis; settings: dose 0-50 µM, time 40.0 min
[4] = test system: BaF3; test: Induction of apoptosis in mouse BaF3 cells assessed as apoptotic rate at 15 uM incubated for 48 hrs by Annexin V-FITC staining based flow cytometry analysis relative to control; type: toxicity, cell-based; settings: baf3, 48 h
[5] = test system: K562; test: Inhibition of HSP70/Bim protein-protein interaction in human K562 cells incubated for 12 hrs by coimmunoprecipitation analysis; type: cell-based; settings: dose 0.5-3 µM
[6] = test system: K562; test: Inhibition of HSP70/Bim protein-protein interaction in human K562 cells assessed as reduction in AKT protein expression at 2 uM incubated for 12 hrs by Western blot analysis; type: cell-based
[7] = test system: K562; test: Induction of apoptosis in human K562 cells incubated for 48 hrs by Annexin V-FITC staining based flow cytometry analysis; type: functional, cell-based; settings: K562, 48 h
[8] = Induction of apoptosis in human Imatinib-resistant K562-R3 cells incubated for 48 hrs by Annexin V-FITC staining based flow cytometry analysis; type: functional; settings: Imatinib-resistant K562-R3 cell
[9] = test system: K562; test: Inhibition of HSP70/Bag3 protein-protein interaction in human K562 cells at 0.5 to 3 uM incubated for 12 hrs by coimmunoprecipitation analysis; type: cell-based; settings: dose 0.5-3 µM
[10] = Binding affinity to N-terminal 6xHis tagged human HSP70 expressed in Escherichia coli BL21 (DE3) assessed as dissociation constant by ITC analysis
[11] = test system: K562; test: Induction of apoptosis in Bim shRNA-transfected human K562 cells assessed as increase in PARP cleavage at 2 uM incubated for 24 hrs by Western blot analysis; type: functional, cell-based
[12] = test system: K562; test: Inhibition of HSP70/Bim protein-protein interaction in human K562 cells assessed as reduction in Raf-1 protein expression at 2 uM incubated for 12 hrs by Western blot analysis; type: cell-based
[13] = test system: K562; test: Inhibition of HSP70/Bim protein-protein interaction in human K562 cells assessed as reduction in eIF4E protein expression at 2 uM incubated for 12 hrs by Western blot analysis; type: cell-based
[14] = Aqueous solubility of compound at pH 7 at 10 mg incubated for 24 hrs under shaking condition by HPLC method; type: physicochemical; settings: aqueous medium
[15] = test system: BV-173; test: Induction of apoptosis in human BV-173 cells incubated for 48 hrs by Annexin V-FITC staining based flow cytometry analysis; type: functional, cell-based; settings: BV-173, 48 h
[16] = test system: HEK293; test: Induction of apoptosis in HEK293 cells assessed as apoptotic rate at 15 uM incubated for 48 hrs by Annexin V-FITC staining based flow cytometry analysis relative to control; type: toxicity, cell-based; settings: human, hek293, 48 h
[17] = test system: K562; test: Induction of apoptosis in Hsp70 shRNA-transfected human K562 cells assessed as increase in PARP cleavage at 2 uM incubated for 24 hrs by Western blot analysis; type: functional, cell-based
[18] = organism: Homo sapiens; test: (§1) Inhibition of BimBH3 peptide stimulated human N-terminal 6xHis tagged Hsp70 ATPase activity expressed in Escherichia coli BL21 (DE3) preincubated for 30 mins followed by ATP addition and measured after 10 mins by luciferin based luminescence analysis; settings: time 40.0 min
[19] = as §1
[20] = Induction of apoptosis in mouse BaF3 cells incubated for 48 hrs by Annexin V-FITC staining based flow cytometry analysis; type: toxicity, cell-based
[21] = organism: Homo sapiens; test: Inhibition of human N-terminal 6xHis tagged HSP70 basal ATPase activity expressed in Escherichia coli BL21 (DE3) at 0 to 50 uM preincubated for 30 mins followed by ATP addition and measured after 10 mins by luciferin based luminescence analysis; settings: dose 0-50 µM, time 40.0 min
[22] = test system: K562; test: Inhibition of HSP70/Bim protein-protein interaction in human K562 cells at 5 uM incubated for 12 hrs by coimmunoprecipitation analysis; type: cell-based
[23] = test system: K562; test: Inhibition of HSP70/Bag3 protein-protein interaction in human K562 cells at 5 uM incubated for 12 hrs by coimmunoprecipitation analysis; type: cell-based
[24] = Induction of apoptosis in HEK293 cells incubated for 48 hrs by Annexin V-FITC staining based flow cytometry analysis; type: toxicity, cell-based; settings: human
[25] = test system: K562; test: Inhibition of HSP70/Bag3 protein-protein interaction in human K562 cells at 3 uM incubated for 12 hrs by coimmunoprecipitation analysis; type: cell-based
[26] = test system: K562; test: Inhibition of HSP70/Bim protein-protein interaction in human K562 cells assessed as reduction in Raf-1 protein expression incubated for 12 hrs by Western blot analysis; type: cell-based
[27] = test system: K562; test: Inhibition of HSP70/Bim protein-protein interaction in human K562 cells assessed as reduction in AKT protein expression incubated for 12 hrs by Western blot analysis; type: cell-based
[28] = test system: K562; test: Inhibition of HSP70/Bim protein-protein interaction in human K562 cells assessed as reduction in eIF4E protein expression incubated for 12 hrs by Western blot analysis; type: cell-based

Question: With `CN(C)CCNc1cc(-c2ccc(OC3CCCCC3)cc2)cc(O)c1C#N` as the compound, how does the pIC50 [1] read?
Answer: 6.03

Question: What about the Activity [2] of the same compound?
Answer: inactive

Question: And the inhibition [3]?
Answer: Active

Question: Which results are given for `CN(C)CCNc1cc(-c2ccc(OC34CC5CC(CC(C5)C3)C4)cc2)cc(O)c1C#N`?
Answer: pIC50 [1]: 5.06; Activity [2]: inactive; inhibition [3]: Active

Question: With `CN(C)CCNc1cc(-c2ccc(OC3CCCCC3)cc2)cc(CC(=O)O)c1C#N` as the compound, how does the pIC50 [1] read?
Answer: 5.44

Question: What about the Activity [2] of the same compound?
Answer: inactive

Question: And the inhibition [3]?
Answer: Active

Question: With `CCN(CC)CCNc1cc(-c2ccc(Oc3cc(C)c(Cl)c(C)c3)cc2)cc(O)c1C#N` as the compound, how does the pIC50 [1] read?
Answer: 6.55

Question: And the Activity [2]?
Answer: inactive

Question: What about the inhibition [3] of the same compound?
Answer: Active

Question: With `O=C(Nc1ccc2ncn(CCN3CCOCC3)c2c1)NC1CCCCC1` as the compound, how does the pIC50 [1] read?
Answer: < 5.00

Question: And the Activity [2]?
Answer: inactive

Question: What about the inhibition [3] of the same compound?
Answer: Active

Question: With `Cc1cc(Oc2ccc(-c3cc(O)c(C#N)c(NCCN(C)C)c3)cc2)cc(C)c1N` as the compound, how does the pIC50 [1] read?
Answer: 6.39

Question: And the Activity [2]?
Answer: inactive

Question: And the inhibition [3]?
Answer: Active

Question: With `CCN(CC)CCn1cnc2ccc(NC(=O)NC3CCCCC3)cc21` as the compound, how does the pIC50 [1] read?
Answer: < 5.00

Question: What about the Activity [2] of the same compound?
Answer: inactive

Question: And the inhibition [3]?
Answer: Active

Question: What does the source list for `CN(C)CCNc1cc(-c2ccc(OC3CCCCC3)cc2)cc(F)c1C#N`?
Answer: pIC50 [1]: 5.09; Activity [2]: inactive; inhibition [3]: Active

Question: With `O=C(Nc1ccc2ccn(CCN3CCOCC3)c2c1)C1CCCCC1` as the compound, how does the pIC50 [1] read?
Answer: < 5.00

Question: What about the Activity [2] of the same compound?
Answer: inactive

Question: What about the inhibition [3] of the same compound?
Answer: Active

Question: With `CN(C)CCNc1cc(-c2ccc(Oc3cc(C(C)(C)C)cc(C(C)(C)C)c3)cc2)cc(O)c1C#N` as the compound, how does the pIC50 [1] read?
Answer: 6.06

Question: What about the Activity [2] of the same compound?
Answer: inactive

Question: What about the inhibition [3] of the same compound?
Answer: Active

Question: With `Cc1cc(Oc2ccc(-c3cc(O)c(C#N)c(NCCN(C)C)c3)cc2)cc(C)c1Cl` as the compound, how does the pIC50 [1] read?
Answer: 6.48

Question: And the Activity [2]?
Answer: inactive

Question: What about the inhibition [3] of the same compound?
Answer: Active

Question: With `CN(C)CCNc1cc(-c2ccc(Oc3ccccc3)cc2)cc(O)c1C#N` as the compound, how does the pIC50 [1] read?
Answer: 5.67

Question: What about the Activity [2] of the same compound?
Answer: inactive

Question: What about the inhibition [3] of the same compound?
Answer: Active

Question: What does the source list for `CN(C)CCn1cnc2ccc(NC(=O)C3CCCCC3)cc21`?
Answer: pIC50 [1]: < 5.00; Activity [2]: inactive; inhibition [3]: Active

Question: With `Cc1cccc(Oc2ccc(-c3cc(O)c(C#N)c(NCCN(C)C)c3)cc2)c1` as the compound, how does the pIC50 [1] read?
Answer: 6.09

Question: And the Activity [2]?
Answer: inactive

Question: What about the inhibition [3] of the same compound?
Answer: Active

Question: Which results are given for `O=C(Nc1ccc2ccn(CCN3CCOCC3)c2c1)NC1CCCCC1`?
Answer: pIC50 [1]: < 5.00; Activity [2]: inactive; inhibition [3]: Active

Question: With `Cc1cc(C)cc(Oc2ccc(-c3cc(O)c(C#N)c(NCCN(C)C)c3)cc2)c1` as the compound, how does the pIC50 [1] read?
Answer: 6.21

Question: And the Activity [2]?
Answer: inactive

Question: And the inhibition [3]?
Answer: Active

Question: Which results are given for `Cc1cc(Oc2ccc(-c3cc(O)c(C#N)c(NCCN4CCCCC4)c3)cc2)cc(C)c1Cl`?
Answer: Activity [4]: < 10%; inhibition [5]: Dose-Dependent Effect; pIC50 [1]: 7.15; Activity [2]: inactive; inhibition [6]: Active; pEC50 [7]: 6.06; pEC50 [8]: 6.72; inhibition [9]: inactive; pKd [10]: 6.91; Activity [11]: inactive; inhibition [12]: Active; inhibition [13]: Active; solubility thermodynamic at 24 h [14]: 29.4 µg/mL (≈ 61.8 µM); pEC50 [15]: 6.37; Activity [16]: < 10%; Activity [17]: inactive; inhibition [18]: Dose-Dependent Effect; pIC50 [19]: 5.31

Question: What does the source list for `N#Cc1ccc(COC[C@H]2O[C@@H](n3c(NCc4ccc(Cl)c(Cl)c4)nc4c(N)ncnc43)[C@H](O)[C@@H]2O)cc1`?
Answer: inhibition [3]: Active; EC50 at 48 h [20]: 7.73 µM; inhibition [21]: Active; pEC50 [7]: 5.15; pEC50 [8]: 5.06; inhibition [22]: inactive; pEC50 [15]: 5.25; inhibition [23]: inactive; EC50 at 48 h [24]: 6.46 µM

Question: Which results are given for `CN(C)CCn1cnc2ccc(NC(=O)NC3CCCCC3)cc21`?
Answer: pIC50 [1]: < 5.00; Activity [2]: inactive; inhibition [3]: Active

Question: With `Cc1cc(Oc2ccc(-c3cc(O)c(C#N)c(NCCN4CCCC4)c3)cc2)cc(C)c1Cl` as the compound, how does the pIC50 [1] read?
Answer: 7.05

Question: What about the Activity [2] of the same compound?
Answer: inactive

Question: What about the inhibition [3] of the same compound?
Answer: Active

Question: With `CN(C)CCn1ccc2ccc(NC(=O)NC3CCCCC3)cc21` as the compound, how does the pIC50 [1] read?
Answer: < 5.00

Question: What about the Activity [2] of the same compound?
Answer: inactive

Question: And the inhibition [3]?
Answer: Active

Question: With `CN(C)CCn1c(=O)oc2ccc(NC(=O)NC3CCCCC3)cc21` as the compound, how does the pIC50 [1] read?
Answer: < 5.00

Question: And the Activity [2]?
Answer: inactive

Question: What about the inhibition [3] of the same compound?
Answer: Active

Question: With `Cc1cc(-c2ccc(OC3CCCCC3)cc2)cc(NCCN(C)C)c1C#N` as the compound, how does the pIC50 [1] read?
Answer: < 5.00

Question: What about the Activity [2] of the same compound?
Answer: inactive

Question: And the inhibition [3]?
Answer: Active

Question: For `CCN(CC)CCNC1=C(C#N)C(=O)c2cccc3c(SC4CCCCC4)ccc1c23`, which Activity [4] is on record?
Answer: < 10%

Question: And the inhibition [25]?
Answer: inactive

Question: And the inhibition [26]?
Answer: Active

Question: And the pIC50 [1]?
Answer: 6.10

Question: What about the Activity [2] of the same compound?
Answer: inactive

Question: And the inhibition [3]?
Answer: Active

Question: What about the pEC50 [7] of the same compound?
Answer: 5.92

Question: What about the pEC50 [8] of the same compound?
Answer: 6.43

Question: And the pKd [10]?
Answer: 6.16

Question: And the solubility thermodynamic at 24 h [14]?
Answer: 7.19 µg/mL (≈ 16.6 µM)

Question: And the pEC50 [15]?
Answer: 6.18

Question: What about the Activity [16] of the same compound?
Answer: < 10%

Question: What about the inhibition [27] of the same compound?
Answer: Active

Question: What about the inhibition [28] of the same compound?
Answer: Active
